Assay results from patent publication US9085576B2 (AMGEN INC., priority 2013, dated 2015).

Key:
BACE = BACE (Homo sapiens (Human), UniProt P56817); assay: In vitro BACE cell-based assay (Aβ40 in conditioned medium, sandwich ELISA)
[1] = biological target: Beta Secretase enzyme (BACE) (Homo sapiens (Human), UniProt P56817); assay: In vitro enzymatic BACE FRET assay; type: biochemical; conditions: read-out: BACE1 Enzyme assay IC50
Description: In Vitro Enzymatic BACE FRET (Fluorescence Resonance Energy Transfer) Assay (Enzyme Assay Data in the Example Table I)
The assay buffer used in this screen is 0.05 M acetate, pH 4.2, 10% DMSO final, 100 uM genapol (which is a nonionic detergent, below its Critical Micelle Concentration). […] This assay is effectively started by the addition of FRET substrate (50 nM) and the combination is incubated for one hour. The FRET assay is terminated with by addition of Tris buffer, which raises the pH to neutrality, and the fluorescence is determined. The FRET substrate is a peptide with commercially available fluorophore and quencher, on opposite sides of the BACE cleavage site.

Cathepsin D (Cat D) = Cathepsin D (Cat D) (Homo sapiens (Human), UniProt P07339); assay: In vitro enzymatic Cathepsin D (Cat D) FRET assay; type: biochemical; conditions: read-out: CatD IC50
Chain of Cathepsin D (Cat D) (P07339 65-412, species assumed): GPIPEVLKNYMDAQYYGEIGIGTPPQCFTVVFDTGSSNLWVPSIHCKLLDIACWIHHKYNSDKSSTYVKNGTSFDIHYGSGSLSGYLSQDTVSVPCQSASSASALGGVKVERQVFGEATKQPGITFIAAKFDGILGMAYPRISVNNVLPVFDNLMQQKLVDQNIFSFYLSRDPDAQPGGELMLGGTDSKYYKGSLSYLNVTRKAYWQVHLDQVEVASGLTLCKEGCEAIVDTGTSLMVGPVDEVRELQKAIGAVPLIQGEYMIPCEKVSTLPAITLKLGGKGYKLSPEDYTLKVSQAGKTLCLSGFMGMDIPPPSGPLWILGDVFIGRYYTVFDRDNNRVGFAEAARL

Chain of Beta Secretase enzyme (BACE) (P56817 46-501): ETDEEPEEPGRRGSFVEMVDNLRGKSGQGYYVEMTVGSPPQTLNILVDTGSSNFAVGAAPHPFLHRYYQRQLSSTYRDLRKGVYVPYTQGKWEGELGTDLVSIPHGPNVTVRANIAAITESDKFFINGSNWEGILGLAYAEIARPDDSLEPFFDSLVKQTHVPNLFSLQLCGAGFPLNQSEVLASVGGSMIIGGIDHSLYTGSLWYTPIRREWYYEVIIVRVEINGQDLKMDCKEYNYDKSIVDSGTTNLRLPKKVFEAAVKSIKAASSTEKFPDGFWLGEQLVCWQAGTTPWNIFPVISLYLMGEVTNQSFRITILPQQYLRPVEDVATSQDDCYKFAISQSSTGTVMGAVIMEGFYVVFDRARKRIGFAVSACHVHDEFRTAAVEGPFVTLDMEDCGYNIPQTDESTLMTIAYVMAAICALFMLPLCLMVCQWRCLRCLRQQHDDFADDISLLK
Chain of BACE (P56817 46-501, species assumed): as the sequence (P56817 46-501) above

| SMILES | IC50 (BACE) [µM] | IC50 [1] [µM] | IC50 (Cathepsin D (Cat D)) [µM] |
| --- | --- | --- | --- |
| NC1=N[C@@](CF)(c2cc(NC(=O)c3ccc(Cl)cn3)cnc2F)[C@@H]2C[C@@H]2O1 [Example 230, N-(5-((1S,5R,6S)-3-amino-5-(fluoromethyl)-2-oxa-4-azabicyclo[4.1.0]hept-3-en-5-yl)-6-fluoropyridin-3-yl)-5-chloropicolinamide] | 2.23 | 12 | > 400 |
| NC1=N[C@](CF)(c2cc(NC(=O)c3ccc(Cl)cn3)cnc2F)[C@H]2C[C@H]2O1 [Example 231, N-(5-((1R,5S,6R)-3-amino-5-(fluoromethyl)-2-oxa-4-azabicyclo[4.1.0]hept-3-en-5-yl)-6-fluoropyridin-3-yl)-5-chloropicolinamide] | 0.0277 | 0.165 | 390 |
| C#CCOc1ccc(C(=O)Nc2ccc(F)c([C@@]3(C(F)F)N=C(N)O[C@@H]4C[C@@H]43)c2)nc1 [Example 232, N-(3-((1R,5S,6R)-3-amino-5-(difluoromethyl)-2-oxa-4-azabicyclo[4.1.0]hept-3-en-5-yl)-4-fluorophenyl)-5-(prop-2-yn-1-yloxy)picolinamide] | 0.0418 | 0.0164 | 588 |
| CC#CCOc1ccc(C(=O)Nc2ccc(F)c([C@@]3(C(F)F)N=C(N)O[C@@H]4C[C@@H]43)c2)nc1 [Example 233, N-(3-((1R,5S,6R)-3-amino-5-(difluoromethyl)-2-oxa-4-azabicyclo[4.1.0]hept-3-en-5-yl)-4-fluorophenyl)-5-(but-2-yn-1-yloxy)picolinamide] | 0.024 | 0.0057 | 244 |
| Cc1cc(C(F)F)cnc1C(=O)Nc1cnc(F)c([C@@]2(CF)N=C(N)O[C@@H]3C[C@@H]32)c1 [Example 234, N-(5-((1R,5S,6R)-3-amino-5-(fluoromethyl)-2-oxa-4-azabicyclo[4.1.0]hept-3-en-5-yl)-6-fluoropyridin-3-yl)-5-(difluoromethyl)-3-methylpicolinamide] | 0.0596 | 0.283 | > 14.8 |
| NC1=N[C@](CF)(c2cc(NC(=O)c3ccc(Br)cn3)cnc2F)[C@H]2C[C@H]2O1 [Example 235, N-(5-((1R,5S,6R)-3-amino-5-(fluoromethyl)-2-oxa-4-azabicyclo[4.1.0]hept-3-en-5-yl)-6-fluoropyridin-3-yl)-5-bromopicolinamide] | 0.0188 | 0.126 | 1810 |
| NC1=N[C@@](c2cc(NC(=O)c3ccc(OCC(F)(F)F)cn3)ccc2F)(C(F)F)[C@H]2C[C@H]2O1 [Example 236, N-(3-((1R,5S,6R)-3-amino-5-(difluoromethyl)-2-oxa-4-azabicyclo[4.1.0]hept-3-en-5-yl)-4-fluorophenyl)-5-(2,2,2-trifluoroethoxy) picolinamide] | 0.296 | 0.104 | 4250 |
| NC1=N[C@@](c2cc(NC(=O)C3CCCCC3)ccc2F)(C(F)F)[C@H]2C[C@H]2O1 [Example 239, N-(3-((1R,5S,6R)-3-amino-5-(difluoromethyl)-2-oxa-4-azabicyclo[4.1.0]hept-3-en-5-yl)-4-fluorophenyl) cyclohexanecarboxamide] | > 15.6 | > 40 | > 400 |
| COCC(=O)Nc1ccc(F)c([C@@]2(C(F)F)N=C(N)O[C@@H]3C[C@@H]32)c1 [Example 240, N-(3-((1R,5S,6R)-3-amino-5-(difluoromethyl)-2-oxa-4-azabicyclo[4.1.0]hept-3-en-5-yl)-4-fluorophenyl)-2-methoxyacetamide] | 0.712 | 0.821 | 48.1 |
| NC1=N[C@@](c2cc(NC(=O)CC3CCCCC3)ccc2F)(C(F)F)[C@H]2C[C@H]2O1 [Example 241, N-(3-((1R,5S,6R)-3-amino-5-(difluoromethyl)-2-oxa-4-azabicyclo[4.1.0]hept-3-en-5-yl)-4-fluorophenyl)-2-cyclohexylacetamide] | > 15.6 | > 40 | > 400 |
| NC1=N[C@@](c2cc(NC(=O)C3CCOCC3)ccc2F)(C(F)F)[C@H]2C[C@H]2O1 [Example 242] | > 15.6 | > 40 | 1910 |
| NC1=N[C@@](c2cc(NC(=O)C3=CCCCC3)ccc2F)(C(F)F)[C@H]2C[C@H]2O1 [Example 243, N-(3-((1R,5S,6R)-3-amino-5-(difluoromethyl)-2-oxa-4-azabicyclo[4.1.0]hept-3-en-5-yl)-4-fluorophenyl)cyclohex-1-enecarboxamide] | 4.07 | 24.4 | 1030 |
| NC1=N[C@@](c2cc(NC(=O)C3(c4ccc(Cl)cc4)CC3)ccc2F)(C(F)F)[C@H]2C[C@H]2O1 [Example 245, N-(3-((1R,5S,6R)-3-amino-5-(difluoromethyl)-2-oxa-4-azabicyclo[4.1.0]hept-3-en-5-yl)-4-fluorophenyl)-1-(4-chlorophenyl) cyclopropanecarboxamide] | > 15.6 | > 40 | 447 |
| NC1=N[C@@](c2cc(NC(=O)C3(c4ccc(Cl)cc4)CCC3)ccc2F)(C(F)F)[C@H]2C[C@H]2O1 [Example 246, N-(3-((1R,5S,6R)-3-amino-5-(difluoromethyl)-2-oxa-4-azabicyclo[4.1.0]hept-3-en-5-yl)-4-fluorophenyl)-1-(4-chlorophenyl) cyclobutanecarboxamide] | > 15.6 | > 40 | 324 |
| COCCC(=O)Nc1ccc(F)c([C@@]2(C(F)F)N=C(N)O[C@@H]3C[C@@H]32)c1 [Example 247, N-(3-((1R,5S,6R)-3-amino-5-(difluoromethyl)-2-oxa-4-azabicyclo[4.1.0]hept-3-en-5-yl)-4-fluorophenyl)-3-methoxypropanamide] | 4.34 | 25.5 | 486 |
| Cn1cc(C(=O)Nc2ccc(F)c([C@@]3(C(F)F)N=C(N)O[C@@H]4C[C@@H]43)c2)ccc1=O [Example 248, N-(3-((1R,5S,6R)-3-amino-5-(difluoromethyl)-2-oxa-4-azabicyclo[4.1.0]hept-3-en-5-yl)-4-fluorophenyl)-1-methyl-6-oxo-1,6-dihydropyridine-3-carboxamide] | > 15.6 | 40.5 | 1230 |
| Cn1ccc(C(=O)Nc2ccc(F)c([C@@]3(C(F)F)N=C(N)O[C@@H]4C[C@@H]43)c2)cc1=O [Example 249, N-(3-((1R,5S,6R)-3-amino-5-(difluoromethyl)-2-oxa-4-azabicyclo[4.1.0]hept-3-en-5-yl)-4-fluorophenyl)-1-methyl-2-oxo-1,2-dihydropyridine-4-carboxamide] | > 15.6 | > 40 | 1590 |
| NC1=N[C@@](c2cc(NC(=O)c3ccc(OCC#CC4CC4)cn3)ccc2F)(C(F)F)[C@H]2C[C@H]2O1 [Example 250, N-(3-((1R,5S,6R)-3-amino-5-(difluoromethyl)-2-oxa-4-azabicyclo[4.1.0]hept-3-en-5-yl)-4-fluorophenyl)-5-((3-cyclopropylprop-2-yn-1-yl)oxy)picolinamide] | 0.603 | 0.0218 | 77.5 |
| NC1=N[C@@](c2cc(NC(=O)CC(F)(F)F)ccc2F)(C(F)F)[C@H]2C[C@H]2O1 [Example 251, N-(3-((1R,5S,6R)-3-amino-5-(difluoromethyl)-2-oxa-4-azabicyclo[4.1.0]hept-3-en-5-yl)-4-fluorophenyl)-3,3,3-trifluoropropanamide] | 2 | 4.7 | 190 |
| CC(C)(C)OCC(=O)Nc1ccc(F)c([C@@]2(C(F)F)N=C(N)O[C@@H]3C[C@@H]32)c1 [Example 254, N-(3-((1R,5S,6R)-3-amino-5-(difluoromethyl)-2-oxa-4-azabicyclo[4.1.0]hept-3-en-5-yl)-4-fluorophenyl)-2-(tert-butoxy)acetamide] | > 15.6 | > 40 | 2560 |
| COCCOCC(=O)Nc1ccc(F)c([C@@]2(C(F)F)N=C(N)O[C@@H]3C[C@@H]32)c1 [Example 255, N-(3-((1R,5S,6R)-3-amino-5-(difluoromethyl)-2-oxa-4-azabicyclo[4.1.0]hept-3-en-5-yl)-4-fluorophenyl)-2-(2-methoxyethoxy) acetamide] | > 15.6 | > 40 | 666 |
| NC1=N[C@@](c2cc(NC(=O)COc3ccccc3)ccc2F)(C(F)F)[C@H]2C[C@H]2O1 [Example 256, N-(3-((1R,5S,6R)-3-amino-5-(difluoromethyl)-2-oxa-4-azabicyclo[4.1.0]hept-3-en-5-yl)-4-fluorophenyl)-2-phenoxyacetamide] | 2.18 | 6.66 | 331 |
| NC1=N[C@@](c2cc(NC(=O)C3CC(=O)C3)ccc2F)(C(F)F)[C@H]2C[C@H]2O1 [Example 258, N-(3-((1R,5S,6R)-3-amino-5-(difluoromethyl)-2-oxa-4-azabicyclo[4.1.0]hept-3-en-5-yl)-4-fluorophenyl)-3-oxocyclobutane-carboxamide] | 2.6 | 20.1 | 117 |
| NC1=N[C@@](c2cc(NC(=O)C3CC3)ccc2F)(C(F)F)[C@H]2C[C@H]2O1 [Example 260, N-(3-((1R,5S,6R)-3-amino-5-(difluoromethyl)-2-oxa-4-azabicyclo[4.1.0]hept-3-en-5-yl)-4-fluorophenyl) cyclopropanecarboxamide] | 3.19 | 5.17 | 104 |
| NC1=N[C@@](c2cc(NC(=O)c3cnc(Cl)cn3)ccc2F)(C(F)F)[C@H]2C[C@H]2O1 [Example 261, N-(3-((1R,5S,6R)-3-amino-5-(difluoromethyl)-2-oxa-4-azabicyclo[4.1.0]hept-3-en-5-yl)-4-fluorophenyl)-5-chloropyrazine-2-carboxamide] | 1.59 | 0.037 | 444 |
| NC1=N[C@@](c2cc(NC(=O)C#Cc3ccccc3)ccc2F)(C(F)F)[C@H]2C[C@H]2O1 [Example 262, N-(3-((1R,5S,6R)-3-amino-5-(difluoromethyl)-2-oxa-4-azabicyclo[4.1.0]hept-3-en-5-yl)-4-fluorophenyl)-3-phenylpropiolamide] | 0.144 | 0.245 | 204 |
